From PMC10785662 (ACS Omega, 2023)

How the values were obtained:
[1] = Pharmacokinetic assay in mice, plasma LC-MS/MS, two-compartment model; assay type: in vivo, mouse
KPC tumors = experiment: In vivo tumor growth study, KPC tumors in athymic nude mice; set-up: species or system mouse; details: 20 mg/kg IV, mice with KPC tumors

## COc1cccc2c1C(=O)c1c(O)c3c(c(O)c1C2=O)C[C@@](O)(C(=O)CO)C[C@@H]3O[C@H]1C[C@H](N)[C@H](O)[C@H](C)O1 [doxorubicin, Doxorubicin]
[1]; male, ICR, mouse, plasma, iv, 6 mg/kg
  AUC: 260 ng·h/mL
[1]; mouse plasma, single IV dose 6.0 mg/kg doxorubicin-equivalent
  T1/2β (terminal half-life): 3.2 h
KPC tumors
  time to toxicity-related fatality: ≤ 1 week
  toxicity-related fatality: toxicity-related fatality in all mice
